Our source for the Ki values is BindingDB's records for doi:10.1021/ja00082a004 (Nci-Fcrdc, 1994).

The target in the assay is T1, Dimer of Gag-Pol polyprotein [489-587] (Human immunodeficiency virus 1, UniProt P12497).
T1 construct: 489-587
The assay is described as follows: Protease Inhibition Assay. Particulars: pH 4.7; 30 °C. As for the experimental part:
HIV-1 protease activity was measured by a continuous fluorometric assay using the internally quenched fluorogenic substrate DABCYL-GABA-Ser-Gln-Tyr-Pro-Ile-Val-Gln-EDANS (BACHEM; M-1865) and a SPEX FluoroMax spectrofluorometer (excitation 340 nm, emission 490 nm). The apparent Ki was estimated by nonlinear regression (GraFit, Erithacus Software) to the equation for tight-binding inhibitor.
The Ki is a measure of affinity in units of concentration, obtained from inhibition or displacement. Read a low Ki as tighter binding. The compound `CC(C)[C@H](NC(=O)N(C)Cc1ccccn1)C(=O)N[C@@H](Cc1ccccc1)[C@H](O)[C@H](O)[C@H](Cc1ccccc1)NC(=O)[C@@H](NC(=O)N(C)Cc1ccccn1)C(C)C` [(2S)-N-[(2S,3R,4S,5S)-3,4-dihydroxy-5-[(2S)-3-methyl-2-{[methyl(pyridin-2-ylmethyl)carbamoyl]amino}butanamido]-1,6-diphenylhexan-2-yl]-3-methyl-2-{[methyl(pyridin-2-ylmethyl)carbamoyl]amino}butanamide] returned a Ki of 12 pM. This counts as picomolar.

As to `CC(C)[C@H](NC(=O)N(C)Cc1ccccn1)C(=O)N[C@@H](Cc1ccccc1)[C@H](O)[C@@H](O)[C@H](Cc1ccccc1)NC(=O)[C@@H](NC(=O)N(C)Cc1ccccn1)C(C)C` [JMC51852 Inhibitor PP], affinity was put at a Ki of 11 pM.

On to `CC(C)[C@H](NC(=O)N(C)Cc1ccccn1)C(=O)N[C@@H](Cc1ccccc1)C[C@@H](O)[C@H](Cc1ccccc1)NC(=O)[C@@H](NC(=O)N(C)Cc1ccccn1)C(C)C` [(2S)-N-[(2S,3R,5S)-3-hydroxy-5-[(2S)-3-methyl-2-{[methyl(pyridin-2-ylmethyl)carbamoyl]amino}butanamido]-1,6-diphenylhexan-2-yl]-3-methyl-2-{[methyl(pyridin-2-ylmethyl)carbamoyl]amino}butanamide], for which affinity was put at a Ki of 4 pM. Compared with the last compound, the Ki is about 2.8-fold lower.

As for `CC(C)[C@H](NC(=O)N(C)Cc1ccccn1)C(=O)N[C@@H](Cc1ccccc1)[C@@H](O)[C@H](O)[C@H](Cc1ccccc1)NC(=O)[C@@H](NC(=O)N(C)Cc1ccccn1)C(C)C` [(2S)-N-[(2S,3R,4R,5S)-3,4-dihydroxy-5-[(2S)-3-methyl-2-{[methyl(pyridin-2-ylmethyl)carbamoyl]amino}butanamido]-1,6-diphenylhexan-2-yl]-3-methyl-2-{[methyl(pyridin-2-ylmethyl)carbamoyl]amino}butanamide], the Ki was 112 pM.
